Experimental data: article PMC7983974 (Basic & Clinical Pharmacology & Toxicology, 2020)

Columns and labels:
Format in all cases: in vitro ADME
[1] = molecular target: T1, UGT-mediated glucuronidation of molidustat in human liver microsomes (HLMs) (Homo sapiens, UniProt P22309); assay: Inhibition of M1 formation from molidustat in pooled human liver microsomes; settings: pooled HLMs 0.3 mg/mL, molidustat 5 µmol/L, 30 min, N=1; Table 1
T1 sequence (P22309 26-533): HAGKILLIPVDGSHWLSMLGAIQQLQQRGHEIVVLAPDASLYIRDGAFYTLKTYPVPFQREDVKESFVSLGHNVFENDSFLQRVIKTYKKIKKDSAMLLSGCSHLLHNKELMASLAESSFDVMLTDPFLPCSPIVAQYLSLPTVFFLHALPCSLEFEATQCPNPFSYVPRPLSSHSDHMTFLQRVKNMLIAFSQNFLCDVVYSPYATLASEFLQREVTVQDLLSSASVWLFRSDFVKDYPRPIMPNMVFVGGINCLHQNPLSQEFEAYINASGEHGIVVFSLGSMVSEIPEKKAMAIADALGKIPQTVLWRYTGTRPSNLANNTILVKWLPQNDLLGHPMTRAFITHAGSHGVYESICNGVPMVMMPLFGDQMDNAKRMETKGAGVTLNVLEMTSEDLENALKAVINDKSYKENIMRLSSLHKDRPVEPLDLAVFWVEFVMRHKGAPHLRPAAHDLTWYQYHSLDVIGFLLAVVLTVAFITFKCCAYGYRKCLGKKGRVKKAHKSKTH

[2] = test system: pooled human liver microsomes; assay: Isoform-specific UGT inhibitors on M1 formation in human liver microsomes; settings: inhibitor 10 µmol L^−1
[3] = test system: pooled human kidney microsomes; assay: Isoform-specific UGT inhibitors on M1 formation in human kidney microsomes; settings: inhibitor 10 µmol L^−1; molidustat 4.9 µmol L^−1; n = 2
[4] = test system: pooled human intestine microsomes; assay: Isoform-specific UGT inhibitors on M1 formation in human intestine microsomes; settings: inhibitor 10 µmol L^−1; molidustat 4.9 µmol L^−1; n = 2

| Molecule | IC50 [1] | inhibitory activity on M1 formation ([2]; liver, intestine and kidney microsomes) | M1 formation in % of control in microsomal tissue, Liver ([2]; molidustat 4.9 µmol L^−1, n = 2) | M1 formation in % of control in microsomal tissue, Kidney [3] | M1 formation in % of control in microsomal tissue, Intestine [4] |
| --- | --- | --- | --- | --- | --- |
| C#C[C@]1(O)CC[C@H]2[C@@H]3CCc4cc(O)ccc4[C@H]3CC[C@@]21C [17a‐Ethynylestradiol] | 10.8 µM |  |  |  |  |
| Cc1ccc(C)c(OCCCC(C)(C)C(=O)O[C@@H]2O[C@H](C(=O)O)[C@@H](O)[C@H](O)[C@H]2O)c1 [Gemfibrozil glucuronide] | 96.1 µM |  |  |  |  |
| Hecogenin |  | none or very little activity | 104.7% | 102.4% | 106.0% |
